Values of other authors, collected in US9457059B2, “Compositions and methods for treating renal failure” (La Jolla Pharmaceutical Company, priority 2013, dated 2016).

Columns and labels:
[1] = tested on: patients with cirrhosis and ascites
[2] = tested on: patients with cirrhosis and ascites; remark: listed apart in the source

Asp-Arg-Val-Tyr-Ile-His-Pro-Phe (DRVYIHPF) [angiotensin II, peptide hormone that regulates blood pressure via vasoconstriction and sodium reabsorption]
tolerability ([1]; use in patients with cirrhosis and ascites): well-tolerated

Asp-Arg-Val-Tyr-Ile-His-Pro-Phe [angiotensin II, peptide hormone that regulates blood pressure via vasoconstriction and sodium reabsorption]
increase in urine output and sodium excretion compared with norepinephrine ([1]; Laragh et al., versus norepinephrine): much more pronounced than those produced by norepinephrine
natriuresis and urine output ([1]; patients with cirrhosis and ascites, no renal failure): induces marked natriuresis and urine output
increase in sodium excretion compared with norepinephrine ([1]; second study, Ames et al., versus norepinephrine): greater increase in sodium excretion compared to norepinephrine

C[C@H](CS)C(=O)N1CCC[C@H]1C(=O)O [captopril]
sodium excretion and urinary output [2]: significantly reduced both sodium excretion and urinary output
